# Values of other authors, collected in patent publication US20070218480A1, “DETECTION AND DIAGNOSIS OF SMOKING RELATED CANCERS” (THE BOARD OF REGENTS OF THE UNIVERSITY OF TEXAS SYSTEM, priority 2006, published 2007).
# Like-named read-outs stand apart in the source and are kept apart here.
# Legend:
# [1] = system: NSCLC patients
# [2] = mice
# [3] = stored at in a dry, airtight, light-resistant environment
compound,measurement,setting,value
COc1cc2ncnc(Nc3ccc(F)c(Cl)c3)c2cc1OCCCN1CCOCC1 [gefitinib],objective response (OR),[1]; HER2 FISH-negative (no or low gain) NSCLC patients treated with gefitinib,6.4%
same,disease control rate (DCR),[1]; HER2 FISH-negative patients,33.3%
same,overall survival (OS),[1]; HER2 FISH-negative patients,8.4 months
same,time to progression (TTP),[1]; HER2 FISH-negative patients,2.7 months
same,objective response (OR),[1]; HER2 FISH-positive (high copy number) NSCLC patients treated with gefitinib,34.8%
same,disease control rate (DCR),[1]; HER2 FISH-positive patients,56.5%
same,overall survival (OS),[1]; HER2 FISH-positive patients,20.8 months
same,time to progression (TTP),[1]; HER2 FISH-positive patients,9.05 months
Bleomycin,tissue distribution,[2],"high concentrations of bleomycin are found in the skin, lungs, kidneys, peritoneum, and lymphatics"
CC[C@@]1(O)C(=O)OCc2c1cc1n(c2=O)Cc2cc3ccccc3nc2-1 [Camptothecin],storage stability,[3],at least two
